# Assay results as given in US20210386791A1, “METHODS OF CELLULAR REPROGRAMMING” (TissueTech, Inc., priority 2018, published 2021).
# System: human corneal fibroblasts (HCF)
# Assay: P3 HCF on plastic with or without immobilized HA or HC-HA/PTX3, with or without TGFβ1: mRNA, ELISA, Western blot, immunostaining
# Assay type: cell-based
# Method: A total of 89 human corneas from individuals aged 18-76 years and maintained at 4° C. in Optisol (Chiron Vision, Irvine, Calif.) for less than 7 days after death were obtained from the Florida Lions Eye Bank (Miami, Fla.) and handled according to the declaration of Helsinki. HCF were isolated and cultured. Epithelial and endothelial cells were removed from corneas, the stroma was cut into cubes of approximately 1 mm^3, incubated in 2 mg/ml collagenase for 16 h at 37° C., and then placed in a culture medium consisting of Dulbecco's modified Eagle's medium (DMEM) supplemented with 10% fetal bovine serum containing […]. The culture medium was changed twice a week. The morphology of the cells was monitored by Nikon Eclipse TS 100 microscope (Melville, N.Y.). Cells cultured to passage 3 (P3) were used for all experiments.
# Human corneal fibroblasts (P3) were seeded on plastics with or without immobilized HC-HA/PTX3 complex for 72 h in DMEM+10% FBS, then serum starved for 24 h and treated with or without TGFβ1 for 24 h before being harvested for mRNA quantitation or immunostaining. For determination of protein of TGFβ receptor or p75NTR, the cells were treated with or without TGF-β1 for 48 h before collection of protein samples because the protein expression lags behind mRNA expression. For TGF-β1 ELISA, the cells were treated with or without TGF-β1 for 24 h, and then cultured in the fresh medium for another 24 h. The supernatants were collected for TGFβ1 ELISA. For TGFβ2 and TGFβ3 ELISA, the cells were treated with or without TGFβ1 for 48 h. Certain HCF were seeded on glass in DMEM+10% FBS for 24 h, then in DMEM+ITS (insulin-transferrin-selenium) for 24 h, treated with/without PBS or hyaluronic acid (HA) or HC-HA/PTX3±TGFβ1 (10 ng/ml)±Marimastat (10 μM) or ±DAPT (10 μM) or ±both for 0, 5, 15, 30 and 45 minutes before being harvested for immunostaining of CD44-ICD, JNK1, Cyclin D1 and p75NTR and for 5 minutes before being harvested for Western blotting of cytoplasmic and nuclear CD44-ICD, active MT1-MMP, and active γ-secretase after compartmental separation of the cellular components.
# Total RNAs were extracted using RNeasy Mini Kit and were reverse transcribed using High Capacity Reverse Transcription Kit (Applied Biosystems). cDNA obtained was amplified by real-time RT-PCR using specific primer-probe mixtures and DNA polymerase in 7000 Real-time PCR System (Thermo-Fisher Scientific, Carlsbad, Calif.). Real-time RT-PCR profile consisted of 10 minutes of initial activation at 95° C., followed by 40 cycles of 15 seconds denaturation at 95° C., and 1 min annealing and 1 min extension at 60° C. The genuine identity of each PCR product was confirmed by the size determination using 2% agarose gels followed by ethidium bromide staining together with PCR marker according to EC3 Imaging System (BioImaging System, Upland, Calif.).
# The Quantikine Human ELISA Kits of TGFβs were used for determination of TGFβs following the manufacturer's instructions (R and D Systems, Minneapolis, Minn.).
# HCF, induced human corneal endothelial cells (HCEC), and HCEC monolayer cultures were air-dried and fixed in 4% formaldehyde, pH 7.0, for 15 min at room temperature, rehydrated in PBS, incubated with 0.2% Triton X-100 for 15 min, and rinsed three times with PBS for 5 min each. After incubation with 2% BSA to block non-specific staining for 30 min, they were incubated with the desired first antibody (all at 1:50 dilution) for 16 h at 4° C. After three washes with PBS, they were incubated with corresponding Alexa-Fluor-conjugated secondary IgG (all 1:100 dilutions) for 60 min. The samples were then counterstained with Hoechst 33342 and analyzed with Zeiss LSM 700 confocal microscope (Thornhood, N.Y.). Corresponding mouse and rabbit sera were used as negative controls for primary monoclonal and polyclonal antibodies, respectively. […]
substance,measurement,setting,value
hyaluronic acid [HA],"expression of NC markers (p75NTR, HNK1, Sox9, KLF4, Snail1, MSX1)",absence of TGFβ1,only upregulated expression of HNK1
same,keratocan mRNA and protein,absence of TGFβ1,upregulated mRNA but not protein of keratocan
same,TGFβ1 mRNA and protein level,after exogenous TGFβ1 (10 ng/ml),upregulated
same,nuclear translocation of pSMAD2/3 and cytoplasmic expression of α-SMA,exogenous TGFβ1,caused nuclear translocation of pSMAD2/3 and positive cytoplasmic expression of α-SMA
same,cell shape / aggregation of P3 HCF,"immobilized substrate, DMEM+10% FBS, 24 h",spindle in shape
same,keratocan upregulation,presence of TGF-β1,upregulation disappeared
same,"NC marker mRNA, p75NTR protein and p75NTR nuclear translocation",with TGFβ1,further upregulated without p75NTR nuclear translocation
